pIC50: −log10 of the molar value. Values after ≈ are worked out from the molar mass of the structure shown.
Columns and labels:
KB = test: Cytotoxicity against human KB cells assessed as cell growth inhibition after 48 hrs by neutral red assay; type: cell-based
SK-MEL = test: Cytotoxicity against human SK-MEL cells assessed as cell growth inhibition after 48 hrs by neutral red assay; type: cell-based
BT-549 = test: Cytotoxicity against human BT549 cells assessed as cell growth inhibition after 48 hrs by neutral red assay; type: cell-based; conditions: BT-549, 48 h
[1] = Retention time of the compound by HPLC analysis; type: physicochemical
[2] = Selectivity index, ratio of IC50 for pig LLC-PK1 cells to IC50 for Plasmodium falciparum W2
[3] = Selectivity index, ratio of IC50 for African green monkey VERO cells to IC50 for Plasmodium falciparum W2
LLC-PK1 = test: Cytotoxicity against pig LLC-PK1 cells assessed as cell growth inhibition after 48 hrs by neutral red assay; type: cell-based; conditions: Sus scrofa, LLC-PK1, 48 h
Plasmodium falciparum [4] = test: Antiplasmodial activity against Plasmodium falciparum D6 infected in human RBC assessed as parasite growth inhibition measured as LDH activity after 72 hrs by plate reader analysis; type: functional, organism-based; conditions: for pIC50: read-out: IC50
[5] = Selectivity index, ratio of IC50 for pig LLC-PK1 cells to IC50 for Plasmodium falciparum D6
Vero = test: Cytotoxicity against African green monkey Vero cells assessed as cell growth inhibition after 48 hrs by neutral red assay; type: cell-based; conditions: Chlorocebus sabaeus
SK-OV-3 = test: Cytotoxicity against human SKOV3 cells assessed as cell growth inhibition after 48 hrs by neutral red assay; type: cell-based; conditions: SK-OV-3, 48 h
Plasmodium falciparum [6] = test: Antiplasmodial activity against Plasmodium falciparum W2 infected in human RBC assessed as parasite growth inhibition measured as LDH activity after 72 hrs by plate reader analysis; type: functional, organism-based; conditions: for pIC50: read-out: IC50
[7] = Selectivity index, ratio of IC50 for African green monkey VERO cells to IC50 for Plasmodium falciparum D6
[8] = test system: Mycobacterium tuberculosis; test: Antitubercular activity against Mycobacterium tuberculosis H37Rv assessed as […] inhibition after 7 days by broth microdilution assay; type: functional; conditions: 168 h
[9] = Plasmodium falciparum, D6, 72 h
[10] = Plasmodium falciparum, D6, 72 h, read-out: pIC50 (converted)
[11] = Plasmodium falciparum, W2, 72 h
[12] = Plasmodium falciparum, W2, 72 h, read-out: pIC50 (converted)

SMILES	Retention_time [1]	IC50 (Plasmodium falciparum [4])	IC50 (Plasmodium falciparum [6])	MIC90 [8]	other results
CC(C)(C)c1ccc(S(=O)(=O)n2cc(-c3ccnc(N)n3)c3cc(Br)ccc32)cc1	13.2 min				pIC50 (KB): < 4.29; pIC50 (SK-MEL): < 4.29; pIC50 (BT-549): < 4.29; Ratio IC50 [2]: >5.9; Ratio IC50 [3]: >5.9; pIC50 (LLC-PK1): < 4.29; pIC50 (Plasmodium falciparum [4]; [9]): 5.08; IC50 (Plasmodium falciparum [4]; [10]): 8.36 µM; Ratio IC50 [5]: >6.1; pIC50 (Vero): < 4.29; pIC50 (SK-OV-3): < 4.29; pIC50 (Plasmodium falciparum [6]; [11]): 5.06; IC50 (Plasmodium falciparum [6]; [12]): 8.75 µM; Ratio IC50 [7]: >6.1
Nc1nccc(-c2cn(S(=O)(=O)c3ccc([N+](=O)[O-])cc3)c3ccc(Br)cc23)n1	7.78 min				pIC50 (KB): < 4.28; pIC50 (SK-MEL): < 4.28; pIC50 (BT-549): < 4.28; Ratio IC50 [2]: >8.2; Ratio IC50 [3]: >8.2; pIC50 (LLC-PK1): < 4.28; pIC50 (Plasmodium falciparum [4]; [9]): 5.31; IC50 (Plasmodium falciparum [4]; [10]): 4.86 µM; Ratio IC50 [5]: >10.8; pIC50 (Vero): < 4.28; pIC50 (SK-OV-3): < 4.28; pIC50 (Plasmodium falciparum [6]; [11]): 5.19; IC50 (Plasmodium falciparum [6]; [12]): 6.38 µM; Ratio IC50 [7]: >10.8
Nc1nccc(-c2cn(S(=O)(=O)c3ccc(F)cc3F)c3ccccc23)n1	7.32 min	Not Active	Not Active		
Nc1nccc(-c2cn(S(=O)(=O)c3ccc(Cl)cc3Cl)c3ccccc23)n1	9.08 min	Not Active	Not Active		
Nc1nccc(-c2cn(Cc3ccc(Cl)s3)c3ccc(Br)cc23)n1				76.6 µM (≈ 32.2 µg/mL)	
Nc1nccc(-c2cn(S(=O)(=O)c3ccc([N+](=O)[O-])cc3)c3ccccc23)n1	7.43 min				
CO[C@H]1/C=C/O[C@@]2(C)Oc3c(C)c(O)c4c(O)c(c(/C=N/N5CCN(C)CC5)c(O)c4c3C2=O)NC(=O)/C(C)=C\C=C\[C@H](C)[C@H](O)[C@@H](C)[C@@H](O)[C@@H](C)[C@H](OC(C)=O)[C@@H]1C [RIFAMPIN]				0.07 µM (≈ 0.0576 µg/mL)	
COc1ccc(S(=O)(=O)n2cc(-c3ccnc(N)n3)c3ccccc32)cc1OC	6.92 min	Not Active	Not Active		
Cc1cc(C)c(S(=O)(=O)n2cc(-c3ccnc(N)n3)c3cc(Br)ccc32)c(C)c1	10.66 min				pIC50 (KB): < 4.28; pIC50 (SK-MEL): < 4.28; pIC50 (BT-549): < 4.28; Ratio IC50 [2]: >6.3; Ratio IC50 [3]: >6.3; pIC50 (LLC-PK1): < 4.28; pIC50 (Plasmodium falciparum [4]; [9]): 5.09; IC50 (Plasmodium falciparum [4]; [10]): 8.13 µM; Ratio IC50 [5]: >6.5; pIC50 (Vero): < 4.28; pIC50 (SK-OV-3): < 4.28; pIC50 (Plasmodium falciparum [6]; [11]): 5.08; IC50 (Plasmodium falciparum [6]; [12]): 8.36 µM; Ratio IC50 [7]: >6.5
CC(C)(C)c1ccc(S(=O)(=O)n2cc(-c3ccnc(N)n3)c3ccccc32)cc1	9.09 min	Not Active	Not Active		
COc1ccc(S(=O)(=O)n2cc(-c3ccnc(N)n3)c3cc(Br)ccc32)cc1	8.08 min	Not Active	Not Active		
O=C1NC(c2c[nH]c3ccc(I)cc23)Nc2ccccc21 (configuration not stated)				5.2 µM (≈ 2.02 µg/mL)	
Cc1cc(C)c(S(=O)(=O)n2cc(-c3ccnc(N)n3)c3ccccc32)c(C)c1	8.95 min	Not Active	Not Active		
CN1CCN(C(=O)n2cc(-c3ccnc(N)n3)c3cc(Br)ccc32)CC1				155 µM (≈ 64.2 µg/mL)	
Nc1nccc(-c2c[nH]c3ccc(Br)cc23)n1 [MERIDIANIN C]				111 µM (≈ 32.1 µg/mL)	Ratio IC50 [2]: >7.4; Ratio IC50 [3]: >7.4; Ratio IC50 [5]: >6; Ratio IC50 [7]: >6
COc1ccc(Br)cc1S(=O)(=O)n1cc(-c2ccnc(N)n2)c2ccccc21	8.38 min	Not Active	Not Active		
Nc1nccc(-c2cn(S(=O)(=O)c3ccc(C(F)(F)F)cc3)c3ccccc23)n1	9.15 min	Not Active	Not Active		
Cc1c(C)c(C)c(S(=O)(=O)n2cc(-c3ccnc(N)n3)c3cc(Br)ccc32)c(C)c1C	13.88 min				
Cc1c(C)c(C)c(S(=O)(=O)n2cc(-c3ccnc(N)n3)c3ccccc32)c(C)c1C	10 min				

SMILES	Retention_time [1]	IC50 (Plasmodium falciparum [4])	IC50 (Plasmodium falciparum [6])	MIC90 [8]	other results
Nc1nccc(-c2cn(S(=O)(=O)c3ccc4ccccc4c3)c3ccccc23)n1	8.31 min	Not Active	Not Active		
Nc1nccc(-c2cn(S(=O)(=O)c3cc(C(F)(F)F)cc(C(F)(F)F)c3)c3ccccc23)n1	7.87 min	Not Active	Not Active		
O=C1NC(c2c[nH]c3ccc(Br)cc23)Nc2ccccc21 (configuration not stated)				23.4 µM (≈ 8.01 µg/mL)	
Cc1ccsc1C(=O)n1cc(-c2ccnc(N)n2)c2ccccc21	8.48 min			192 µM (≈ 64.1 µg/mL)	
Cc1noc(C)c1Cn1cc(-c2ccnc(N)n2)c2cc(Br)ccc21				80.6 µM (≈ 32.1 µg/mL)	
Nc1nccc(-c2cn(S(=O)(=O)c3cc(C(F)(F)F)cc(C(F)(F)F)c3)c3ccc(Br)cc23)n1	10.48 min	Not Active	Not Active		
Nc1nccc(-c2cn(S(=O)(=O)c3ccc4c(c3)OCCO4)c3ccc(Br)cc23)n1	8 min	Not Active	Not Active		
Nc1nccc(-c2cn(S(=O)(=O)c3ccc(OC(F)(F)F)cc3)c3ccc(Br)cc23)n1	9.54 min	Not Active	Not Active	62.5 µM (≈ 32.1 µg/mL)	
Nc1nccc(-c2cn(C(=O)c3ccccc3)c3ccc(Br)cc23)n1				163 µM (≈ 64 µg/mL)	
Nc1nccc(-c2c[nH]c3ccccc23)n1				305 µM (≈ 64.1 µg/mL)	Ratio IC50 [2]: >24.1; Ratio IC50 [3]: >26.8; Ratio IC50 [5]: >11.1; Ratio IC50 [7]: >12.3
Nc1nccc(-c2cn(S(=O)(=O)c3ccc(I)cc3)c3ccccc23)n1	8.8 min	Not Active	Not Active		
COCCn1cc(-c2ccnc(N)n2)c2cc(Br)ccc21				92.2 µM (≈ 32 µg/mL)	
Nc1nccc(-c2cn(S(=O)(=O)c3cccc(C(F)(F)F)c3)c3ccccc23)n1	8.34 min	Not Active	Not Active	153 µM (≈ 64.1 µg/mL)	
COc1ccc(S(=O)(=O)n2cc(-c3ccnc(N)n3)c3ccccc32)cc1	8.49 min	Not Active	Not Active		
Nc1nccc(-c2cn(S(=O)(=O)c3ccc4c(c3)OCCO4)c3ccccc23)n1	8.02 min	Not Active	Not Active		
COc1cccc2c1C(=O)c1c(O)c3c(c(O)c1C2=O)C[C@@](O)(C(=O)CO)C[C@@H]3O[C@H]1C[C@H](N)[C@H](O)[C@H](C)O1 [DOXORUBICIN]					pIC50 (BT-549): 5.80; pIC50 (Vero): < 5.05
Nc1nccc(-c2cn(S(=O)(=O)c3ccc(Br)cc3)c3ccccc23)n1	8.45 min	Not Active	Not Active		
Cc1noc(C)c1Cn1cc(-c2ccnc(N)n2)c2ccccc21				201 µM (≈ 64.1 µg/mL)	

From ChEMBL document CHEMBL3425465, “Synthesis, antimalarial and antitubercular activities of meridianin derivatives” (Eur J Med Chem, 2015)
